Values of other authors, collected in patent US20220280561A1, “COPPER-ATSM FOR TREATING NEURODEGENERATIVE DISORDERS ASSOCITED WITH MITOCHONDRIAL DYSFUNCTION” (RESEARCH INSTITUTE AT NATIONWIDE CHILDREN'S HOSPITAL, priority 2019, published 2022).

Test system: ALS
Details: ALS patients; cited from earlier work

Compound	patient quality of life	lifespan
CC1=NN(c2ccccc2)C(=O)C1 [Edaravone]	significant impact on patient quality of life	
Nc1nc2ccc(OC(F)(F)F)cc2s1 [Riluzole]		modestly extending lifespan
